Laboratory results reported in the supplement of paper PMC13380429.

How the values were obtained:
Details in all cases: 72 h
[1] = tested on: Caco-2; experiment: cell viability relative to DMSO; higher = less toxic
[2] = tested on: Calu-3; experiment: as above
[3] = tested on: HepG2; experiment: as above
[4] = tested on: U2OS; experiment: as above
[5] = tested on: Vero E6; experiment: as above
[6] = tested on: Caco-2; experiment: relative viability EC50 (midpoint between 100% and the lowest measured viability); higher = less toxic
[7] = tested on: Calu-3; experiment: as above
[8] = tested on: HepG2; experiment: as above
[9] = tested on: U2OS; experiment: as above
[10] = tested on: Vero E6; experiment: as above
[11] = tested on: Caco-2; experiment: drug sensitivity score (DSS) for viability; higher = more toxic; extreme values may be limits of the assay
[12] = tested on: Calu-3; experiment: as above
[13] = tested on: HepG2; experiment: as above
[14] = tested on: U2OS; experiment: as above
[15] = tested on: Vero E6; experiment: as above

## Cc1cc(NC(=O)C2=C(O)c3ccccc3S(=O)(=O)N2C)no1 [isoxicam]
[1]; 1 nM
  cell viability: 99.4%
[1]; 10 nM
  cell viability: 94.8%
[1]; 100 nM
  cell viability: 97.9%
[1]; 1000 nM
  cell viability: 96.2%
[1]; 10000 nM
  cell viability: 109%
[2]; 1 nM
  cell viability: 113%
[2]; 10 nM
  cell viability: 109%
[2]; 100 nM
  cell viability: 97.7%
[2]; 1000 nM
  cell viability: 98.1%
[2]; 10000 nM
  cell viability: 104%
[3]; 1 nM
  cell viability: 101%
[3]; 10 nM
  cell viability: 84.5%
[3]; 100 nM
  cell viability: 87.3%
[3]; 1000 nM
  cell viability: 103%
[3]; 10000 nM
  cell viability: 100%
[4]; 1 nM
  cell viability: 95.2%
[4]; 10 nM
  cell viability: 101%
[4]; 100 nM
  cell viability: 98.4%
[4]; 1000 nM
  cell viability: 105%
[4]; 10000 nM
  cell viability: 98.3%
[5]; 1 nM
  cell viability: 95.3%
[5]; 10 nM
  cell viability: 94.1%
[5]; 100 nM
  cell viability: 102%
[5]; 1000 nM
  cell viability: 102%
[5]; 10000 nM
  cell viability: 106%
[6]
  relative viability EC50: > 10 µM
[7]
  relative viability EC50: > 10 µM
[8]
  relative viability EC50: > 10 µM
[9]
  relative viability EC50: > 10 µM
[10]
  relative viability EC50: > 10 µM
[11]
  drug sensitivity score: 0
[12]
  drug sensitivity score: 0
[13]
  drug sensitivity score: 0
[14]
  drug sensitivity score: 0
[15]
  drug sensitivity score: 0

## COc1cccc(-c2ccc([C@@H](Oc3cc(-c4ccc(C[C@H](N)C(=O)O)cc4)nc(N)n3)C(F)(F)F)cc2)c1 [LX1031]
[1]; 1 nM
  cell viability: 91.5%
[1]; 10 nM
  cell viability: 96.7%
[1]; 100 nM
  cell viability: 94.1%
[1]; 1000 nM
  cell viability: 92.9%
[1]; 10000 nM
  cell viability: 101%
[2]; 1 nM
  cell viability: 99.3%
[2]; 10 nM
  cell viability: 98.2%
[2]; 100 nM
  cell viability: 102%
[2]; 1000 nM
  cell viability: 97.3%
[2]; 10000 nM
  cell viability: 103%
[3]; 1 nM
  cell viability: 111%
[3]; 10 nM
  cell viability: 100%
[3]; 100 nM
  cell viability: 111%
[3]; 1000 nM
  cell viability: 99.3%
[3]; 10000 nM
  cell viability: 102%
[4]; 1 nM
  cell viability: 96.4%
[4]; 10 nM
  cell viability: 93.4%
[4]; 100 nM
  cell viability: 95.2%
[4]; 1000 nM
  cell viability: 102%
[4]; 10000 nM
  cell viability: 99.9%
[5]; 1 nM
  cell viability: 105%
[5]; 10 nM
  cell viability: 89.6%
[5]; 100 nM
  cell viability: 101%
[5]; 1000 nM
  cell viability: 98.8%
[5]; 10000 nM
  cell viability: 106%
[6]
  relative viability EC50: > 10 µM
[7]
  relative viability EC50: > 10 µM
[8]
  relative viability EC50: > 10 µM
[9]
  relative viability EC50: > 10 µM
[10]
  relative viability EC50: > 10 µM
[11]
  drug sensitivity score: 0
[12]
  drug sensitivity score: 0
[13]
  drug sensitivity score: 0
[14]
  drug sensitivity score: 0
[15]
  drug sensitivity score: 0

## CCn1c(=O)c2c(nc(/C=C/c3ccc(OC)c(OC)c3)n2C)n(CC)c1=O [istradefylline]
[1]; 1 nM
  cell viability: 97.7%
[1]; 10 nM
  cell viability: 89.7%
[1]; 100 nM
  cell viability: 104%
[1]; 1000 nM
  cell viability: 103%
[1]; 10000 nM
  cell viability: 106%
[2]; 1 nM
  cell viability: 87.5%
[2]; 10 nM
  cell viability: 93.8%
[2]; 100 nM
  cell viability: 94.4%
[2]; 1000 nM
  cell viability: 101%
[2]; 10000 nM
  cell viability: 103%
[3]; 1 nM
  cell viability: 97.1%
[3]; 10 nM
  cell viability: 94.1%
[3]; 100 nM
  cell viability: 101%
[3]; 1000 nM
  cell viability: 98.9%
[3]; 10000 nM
  cell viability: 112%
[4]; 1 nM
  cell viability: 102%
[4]; 10 nM
  cell viability: 97.9%
[4]; 100 nM
  cell viability: 101%
[4]; 1000 nM
  cell viability: 104%
[4]; 10000 nM
  cell viability: 102%
[5]; 1 nM
  cell viability: 103%
[5]; 10 nM
  cell viability: 97.1%
[5]; 100 nM
  cell viability: 93.6%
[5]; 1000 nM
  cell viability: 96.4%
[5]; 10000 nM
  cell viability: 104%
[6]
  relative viability EC50: > 10 µM
[7]
  relative viability EC50: > 10 µM
[8]
  relative viability EC50: > 10 µM
[9]
  relative viability EC50: > 10 µM
[10]
  relative viability EC50: > 10 µM
[11]
  drug sensitivity score: 0
[12]
  drug sensitivity score: 0
[13]
  drug sensitivity score: 0
[14]
  drug sensitivity score: 0
[15]
  drug sensitivity score: 0
